Laboratory results: patent US20220026427A1, “CELL BASED ASSAYS AND KITS FOR ASSESSING SERUM CHOLINERGIC RECEPTOR ACTIVITY” (Centre for Addiction and Mental Health, priority 2017, published 2022)
Where a name gives a salt, the structure may show the parent alone.

Legend:
[1] = target: T1, human or rat M1 muscarinic receptors (Rattus norvegicus, UniProt P08482); assay: Ca2+ mobilization (FluoForte) protocol in CHO cells expressing M1 receptors, pre- and post-carbachol phases; type: cell-based
T1 construct: host or cells: CHO cells (M1WT3), whole cells
T1 sequence (P08482 1-460): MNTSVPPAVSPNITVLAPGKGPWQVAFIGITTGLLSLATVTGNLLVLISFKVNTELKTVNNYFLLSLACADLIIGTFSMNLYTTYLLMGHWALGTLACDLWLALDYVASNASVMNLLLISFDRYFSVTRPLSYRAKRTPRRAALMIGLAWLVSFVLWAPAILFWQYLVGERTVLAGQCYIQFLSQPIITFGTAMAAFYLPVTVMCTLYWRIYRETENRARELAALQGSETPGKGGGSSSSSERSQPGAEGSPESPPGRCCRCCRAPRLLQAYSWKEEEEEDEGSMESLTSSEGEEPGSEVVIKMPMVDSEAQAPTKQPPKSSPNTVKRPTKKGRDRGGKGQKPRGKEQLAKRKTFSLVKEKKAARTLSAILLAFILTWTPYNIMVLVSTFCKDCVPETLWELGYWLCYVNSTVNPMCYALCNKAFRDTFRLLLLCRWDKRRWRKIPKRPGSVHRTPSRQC

[2] = test system: cognitively intact healthy participants; settings: in vivo, iv
Source text: Cambridge Neuropsychological Test Automated Battery (CANTAB-AD):
Two main challenges are often encountered with many of the newer neurocognitive tasks. First is the lack of standardization in administering such tasks. Second is the lack of information on their psychometric properties. The Cambridge Neuropsychological Test Automated Battery (CANTAB) system addresses both of these challenges (www.cambridgecognition.com). The design of the CANTAB is based on well-established neurocognitive experimental paradigms. It was designed initially to provide componential analysis of cognitive functions in the elderly and individuals with dementia. The CANTAB Eclipse consists of 22 tasks that assess neurocognitive processes within a wide range of relatively independent cognitive domains, including visual memory, attention, working memory and problem solving. Each of the tasks is graded, allowing the assessment of patients with varying level of impairment. Increasing the difficulty of a task avoids a ceiling effect. Conversely, decreasing the difficulty of a task avoids a floor effect and allows the distinction between specific and generalized deficits (a concern discussed above). The tasks are automated and therefore testing is given in a standardized manner with a standardized feedback about accuracy and speed. […] Estimates of test-retest reliability and of practice effects are available for many of the CANTAB tasks based on an elderly sample with an age range of 60-80 years. The CANTAB has been used in a variety of clinical populations providing an opportunity to compare findings related to different disorders, including findings examining cognition in late-life bipolar disorder. Finally, the CANTAB tasks are independent of language and culture and can be used in population for whom English is not a primary language^46.
Participants attended the Centre for Addiction and Mental Health on two separate occasions:
Visit 2: Upon arrival at CAMH, participants were administered the CANTAB. An IV line was then set up by a research nurse and the first blood sample was taken. […] The CANTAB was completed once more. […] The qualified investigator or designate was available for the entirety of the study visit.

In the case of `CN1[C@@H]2CC[C@H]1C[C@@H](OC(=O)C(CO)c1ccccc1)C2` (stereo partly shown) [Atropine, atropine], the “effect of the antagonist alone on Ca2+ mobilization” value [1] is reported as “no effect on their own” and the “effect on the agonist response (serum peak)” value [1] is reported as “completely blocked this agonist response”.
With `Clc1ccc2c(c1)N=C(N1CCNCC1)c1ccccc1N2` [NDMC, N-desmethylclozapine] the “effect on Ca2+ mobilization in the pre-carbachol phase” value [1] was “stronger effects than CLZ” and the “effect on the carbachol response (post-carbachol phase)” value [1] was “virtually eliminated the carbachol response”.
`CN1[C@@H]2C[C@@H](OC(=O)[C@H](CO)c3ccccc3)C[C@H]1[C@@H]1O[C@@H]12` [scopolamine, Scopolamine Hydrobromide] was tested, and the “blc_pc difference score (Big/little circle, Percent correct)” value [2] was −0.8, the “dms_pc difference score (Delayed matching to sample, Percent correct (all delays))” value [2] was −19.3 and the “dms_pcs difference score (Delayed matching to sample, Percent correct (simultaneous))” value [2] was 4.4. For the same compound, the “dms_pege difference score (Delayed matching to sample, Prob error given error)” value [2] was 0.1, the “pal_tea6 difference score (Paired associated learning, Total errors (6 shapes, adjusted))” value [2] was 9.0 and the “pal_tea difference score (Paired associated learning, Total errors (adjusted))” value [2] was 19.1. The “rvp_a difference score (Rapid image visual processing, A′)” value [2] was −0.1, the “soc_mitt5 difference score (Stocking of Cambridge, Mean initial thinking time (5 moves))” value [2] was −3055.0 and the “soc_mstt5 difference score (Stocking of Cambridge, Mean subsequent thinking time (5 moves))” value [2] was 5139.3. For the same compound, the “soc_psimm difference score (Stocking of Cambridge, Problems solved in minimum moves)” value [2] was −1.7, the “swm_be difference score (Spatial working memory, Between errors)” value [2] was 20.2 and the “swm_strat difference score (Spatial working memory, Strategy)” value [2] was 3.1.
